In PubChem BioAssay (NCI):
Several values for one entry are separate records, joined by “and”; a condition that tells them apart may be missing. Equal values may be shown once.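 In this assay, cells in 96-well plates receive the compound at five concentrations for 48 hours. Endpoints are linearly interpolated between the surrounding concentrations. GI50: concentration for 50% inhibition of growth. TGI is the concentration that stops growth completely.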

Experiments:
Experiment in all cases: inhibition of tumour cell growth, NCI panel, 48 h
IGROV1 ovarian = test system: IGROV1 ovarian
DU-145 prostate = test system: DU-145 prostate
RPMI-8226 leukemia = test system: RPMI-8226 leukemia
EKVX NSCLC = test system: EKVX NSCLC
SK-OV-3 ovarian = test system: SK-OV-3 ovarian
UACC-257 melanoma = test system: UACC-257 melanoma
HCT-15 colon = test system: HCT-15 colon
NCI-H23 lung = test system: NCI-H23 lung
HL-60(TB) leukemia = test system: HL-60(TB) leukemia
MDA-MB-435 = test system: MDA-MB-435

Row | SMILES | TGI (IGROV1 ovarian) | TGI (DU-145 prostate) | TGI (RPMI-8226 leukemia) | TGI (EKVX NSCLC) | TGI (SK-OV-3 ovarian) | TGI (UACC-257 melanoma) | TGI (HCT-15 colon) | TGI (NCI-H23 lung) | TGI (HL-60(TB) leukemia) | TGI (MDA-MB-435) | GI50 (IGROV1 ovarian) | GI50 (DU-145 prostate) | GI50 (EKVX NSCLC) | GI50 (SK-OV-3 ovarian) | GI50 (UACC-257 melanoma) | GI50 (HCT-15 colon) | GI50 (NCI-H23 lung) | GI50 (HL-60(TB) leukemia) | GI50 (MDA-MB-435) | GI50 (RPMI-8226 leukemia)
1 | O=C1CC(c2ccc(Cl)cc2)Oc2ccccc21 (centres undefined) | 40.8 µM | > 100 µM | 9.12 µM | 54.8 µM | 61 µM | > 100 µM | 48 µM | 40.2 µM | 34.1 µM | > 100 µM | – | – | – | – | – | – | – | – | – | –
2 | [Cl][Cd][Cl] | > 60.6 µM and 16.1 µM | 63.6 µM | 8.71 µM and 71.5 µM and 61.8 µM | 52 µM and 19.9 µM | > 60 µM and 26 µM | 56.2 µM and 74.9 µM | 150 µM | 58.1 µM and 10.8 µM | > 84.5 µM and 118 µM | 30.9 µM | 4.32 µM and 29.7 µM and 8.4 µM | 24 µM | 24.7 µM and 9.95 µM | 44.3 µM and 12.4 µM | 22 µM and 27 µM | 52.2 µM | 3.08 µM and 25.4 µM and 2.68 µM | 39.4 µM and 18.6 µM | 8.26 µM | –
3 | OCCN1CCN(CC/C=C2\c3ccccc3Sc3ccc(Cl)cc32)CC1 | 12.7 µM and 11 µM | 17.4 µM and 19.7 µM | 3.11 µM and 10.8 µM | 23.7 µM and 21 µM | 19.1 µM and 16.9 µM | 4.18 µM and 3.17 µM | 3.64 µM and 4.29 µM | 28.2 µM and 21.4 µM | 3.71 µM and 9.92 µM | 4.78 µM and 4.63 µM | 3.21 µM and 3.51 µM | 5.18 µM and 7.27 µM | 5.78 µM and 6.11 µM | 6.48 µM and 5.76 µM | 1.97 µM and 1.71 µM | 1.84 µM and 2 µM | 10.7 µM and 7.72 µM | 4.04 µM | 1.99 µM and 2.01 µM | 1.17 µM and 3.12 µM
4 | CC(C)CCN[C@@H]1CCc2cc(O)c(N3CC(=O)NS3(=O)=O)c(F)c2C1 | > 100 µM | > 100 µM | > 100 µM | > 100 µM | > 100 µM | > 100 µM | > 100 µM | > 100 µM | > 100 µM | > 100 µM | > 100 µM | > 100 µM | > 100 µM | > 100 µM | > 100 µM | > 100 µM | > 100 µM | > 100 µM | > 100 µM | > 100 µM
